Species on record: Rattus norvegicus
Assay: DrugMatrix - Regimen: Daily Repeat
Format: toxicity, organism-based, Sprague-Dawley
Parameters: regimen Daily Repeat, gender Male, age 6-8 weeks
Settings: in vivo, po, route oral GAVAGE, vehicle 100 % WATER; for ABSOLUTE BASOPHIL / ABSOLUTE EOSINOPHIL / ABSOLUTE LYMPHOCYTE / ABSOLUTE MONOCYTE / ABSOLUTE SEGMENTED NEUTROPHIL / BASOPHIL / EOSINOPHIL / ERYTHROCYTE COUNT / HEMATOCRIT / HEMOGLOBIN / LEUKOCYTE COUNT / LYMPHOCYTE / MEAN CORPUSCULAR HEMOGLOBIN / MEAN CORPUSCULAR HEMOGLOBIN CONCENTRATION / MEAN CORPUSCULAR VOLUME / MONOCYTE / NEUTROPHIL / NUCLEATED RED BLOOD CELLS / PLATELET COUNT: tissue Blood; for ALANINE AMINOTRANSFERASE / ALBUMIN / ALKALINE PHOSPHATASE / ASPARTATE AMINOTRANSFERASE / BLOOD UREA NITROGEN / CARBON DIOXIDE / CHLORIDE / CHOLESTEROL / CREATINE PHOSPHOKINASE / CREATININE / GLUCOSE / LACTATE DEHYDROGENASE / LIPASE / PHOSPHORUS / POTASSIUM / SODIUM / TOTAL BILIRUBIN / TOTAL PROTEIN / URIC ACID: tissue Plasma
[1] = 0 mg/kg, 72 h, dose level Control, time 3 day
[2] = 0 mg/kg, 120 h, dose level Control, time 5 day
[3] = 25 mg/kg, 72 h, dose level Low, time 3 day
[4] = 25 mg/kg, 120 h, dose level Low, time 5 day

## CCC1(c2ccccc2)C(=O)NC(=O)NC1=O [PHENOBARBITAL]
[1]
  ABSOLUTE BASOPHIL: 0 CELLS/uL
  ABSOLUTE EOSINOPHIL: 32.5 CELLS/uL
  ABSOLUTE LYMPHOCYTE: 9305.83 CELLS/uL
  ABSOLUTE MONOCYTE: 43.83 CELLS/uL
  ABSOLUTE SEGMENTED NEUTROPHIL: 817.83 CELLS/uL
  BASOPHIL: 0%
  EOSINOPHIL: 0.33%
  ERYTHROCYTE COUNT: 5.38 x10E6/uL
  HEMATOCRIT: 33.63%
  HEMOGLOBIN: 13.17 G/DL
  LEUKOCYTE COUNT: 10.2 x10E3/uL
  LYMPHOCYTE: 91.17%
  MEAN CORPUSCULAR HEMOGLOBIN: 24.5 pg
  MEAN CORPUSCULAR HEMOGLOBIN CONCENTRATION: 39.13 G/DL
  MEAN CORPUSCULAR VOLUME: 62.53 fL
  MONOCYTE: 0.5%
  NEUTROPHIL: 8%
  NUCLEATED RED BLOOD CELLS: 0.17 /100WBC
  PLATELET COUNT: 858 x10E3/uL
  ALANINE AMINOTRANSFERASE: 55.67 u/L
  ALBUMIN: 4.07 G/DL
  ALKALINE PHOSPHATASE: 337 u/L
  ASPARTATE AMINOTRANSFERASE: 84 u/L
  BLOOD UREA NITROGEN: 13.17 mg/dL
  CARBON DIOXIDE: 34.17 mmol/L
  CHLORIDE: 99.33 MEQ/L
  CHOLESTEROL: 78.83 mg/dL
  CREATINE PHOSPHOKINASE: 576.83 u/L
  CREATININE: 0.17 mg/dL
  GLUCOSE: 152.67 mg/dL
  LACTATE DEHYDROGENASE: 147.83 u/L
  LIPASE: 9.5 u/L
  PHOSPHORUS: 10.78 mg/dL
  POTASSIUM: 6.34 MEQ/L
  SODIUM: 144.12 MEQ/L
  TOTAL BILIRUBIN: 0.18 mg/dL
  TOTAL PROTEIN: 6.08 G/DL
  URIC ACID: 0.65 mg/dL
[2]
  ABSOLUTE BASOPHIL: 0 CELLS/uL
  ABSOLUTE EOSINOPHIL: 31.17 CELLS/uL
  ABSOLUTE LYMPHOCYTE: 7918.33 CELLS/uL
  ABSOLUTE MONOCYTE: 58.33 CELLS/uL
  ABSOLUTE SEGMENTED NEUTROPHIL: 725.5 CELLS/uL
  BASOPHIL: 0%
  EOSINOPHIL: 0.33%
  ERYTHROCYTE COUNT: 5.32 x10E6/uL
  HEMATOCRIT: 33.53%
  HEMOGLOBIN: 13.17 G/DL
  LEUKOCYTE COUNT: 8.73 x10E3/uL
  LYMPHOCYTE: 90.33%
  MEAN CORPUSCULAR HEMOGLOBIN: 24.82 pg
  MEAN CORPUSCULAR HEMOGLOBIN CONCENTRATION: 39.33 G/DL
  MEAN CORPUSCULAR VOLUME: 63.12 fL
  MONOCYTE: 0.67%
  NEUTROPHIL: 8.67%
  NUCLEATED RED BLOOD CELLS: 0 /100WBC
  PLATELET COUNT: 1144.83 x10E3/uL
  ALANINE AMINOTRANSFERASE: 60.5 u/L
  ALBUMIN: 3.97 G/DL
  ALKALINE PHOSPHATASE: 343.17 u/L
  ASPARTATE AMINOTRANSFERASE: 80.83 u/L
  BLOOD UREA NITROGEN: 15 mg/dL
  CARBON DIOXIDE: 31 mmol/L
  CHLORIDE: 99.75 MEQ/L
  CHOLESTEROL: 71.5 mg/dL
  CREATINE PHOSPHOKINASE: 237.17 u/L
  CREATININE: 0.17 mg/dL
  GLUCOSE: 137 mg/dL
  LACTATE DEHYDROGENASE: 146.17 u/L
  LIPASE: 11.5 u/L
  PHOSPHORUS: 10.13 mg/dL
  POTASSIUM: 6 MEQ/L
  SODIUM: 145 MEQ/L
  TOTAL BILIRUBIN: 0.13 mg/dL
  TOTAL PROTEIN: 5.82 G/DL
  URIC ACID: 0.62 mg/dL
[3]
  ABSOLUTE BASOPHIL: 0 CELLS/uL
  ABSOLUTE EOSINOPHIL: 0 CELLS/uL
  ABSOLUTE LYMPHOCYTE: 9305.33 CELLS/uL
  ABSOLUTE MONOCYTE: 110 CELLS/uL
  ABSOLUTE SEGMENTED NEUTROPHIL: 784.67 CELLS/uL
  BASOPHIL: 0%
  EOSINOPHIL: 0%
  ERYTHROCYTE COUNT: 5.23 x10E6/uL
  HEMATOCRIT: 33.43%
  HEMOGLOBIN: 13.03 G/DL
  LEUKOCYTE COUNT: 10.2 x10E3/uL
  LYMPHOCYTE: 92.33%
  MEAN CORPUSCULAR HEMOGLOBIN: 24.97 pg
  MEAN CORPUSCULAR HEMOGLOBIN CONCENTRATION: 39 G/DL
  MEAN CORPUSCULAR VOLUME: 63.97 fL
  MONOCYTE: 0.67%
  NEUTROPHIL: 7%
  NUCLEATED RED BLOOD CELLS: 0 /100WBC
  PLATELET COUNT: 972.33 x10E3/uL
  ALANINE AMINOTRANSFERASE: 52.33 u/L
  ALBUMIN: 4 G/DL
  ALKALINE PHOSPHATASE: 326.67 u/L
  ASPARTATE AMINOTRANSFERASE: 74.67 u/L
  BLOOD UREA NITROGEN: 12 mg/dL
  CARBON DIOXIDE: 35 mmol/L
  CHLORIDE: 97.5 MEQ/L
  CHOLESTEROL: 87.67 mg/dL
  CREATINE PHOSPHOKINASE: 212 u/L
  CREATININE: 0.15 mg/dL
  GLUCOSE: 146.33 mg/dL
  LACTATE DEHYDROGENASE: 153.33 u/L
  LIPASE: 12 u/L
  PHOSPHORUS: 11.73 mg/dL
  POTASSIUM: 6.16 MEQ/L
  SODIUM: 143.95 MEQ/L
  TOTAL BILIRUBIN: 0.2 mg/dL
  TOTAL PROTEIN: 5.83 G/DL
  URIC ACID: 0.83 mg/dL
[4]
  ABSOLUTE BASOPHIL: 0 CELLS/uL
  ABSOLUTE EOSINOPHIL: 0 CELLS/uL
  ABSOLUTE LYMPHOCYTE: 5785.67 CELLS/uL
  ABSOLUTE MONOCYTE: 18.33 CELLS/uL
  ABSOLUTE SEGMENTED NEUTROPHIL: 262.67 CELLS/uL
  BASOPHIL: 0%
  EOSINOPHIL: 0%
  ERYTHROCYTE COUNT: 5.55 x10E6/uL
  HEMATOCRIT: 34.67%
  HEMOGLOBIN: 13.1 G/DL
  LEUKOCYTE COUNT: 6.07 x10E3/uL
  LYMPHOCYTE: 94.33%
  MEAN CORPUSCULAR HEMOGLOBIN: 23.57 pg
  MEAN CORPUSCULAR HEMOGLOBIN CONCENTRATION: 37.77 G/DL
  MEAN CORPUSCULAR VOLUME: 62.47 fL
  MONOCYTE: 0.33%
  NEUTROPHIL: 5.33%
  NUCLEATED RED BLOOD CELLS: 0 /100WBC
  PLATELET COUNT: 1109.67 x10E3/uL
  ALANINE AMINOTRANSFERASE: 55.33 u/L
  ALBUMIN: 4.13 G/DL
  ALKALINE PHOSPHATASE: 380.67 u/L
  ASPARTATE AMINOTRANSFERASE: 85 u/L
  BLOOD UREA NITROGEN: 17.67 mg/dL
  CARBON DIOXIDE: 32.67 mmol/L
  CHLORIDE: 100 MEQ/L
  CHOLESTEROL: 89.67 mg/dL
  CREATINE PHOSPHOKINASE: 357 u/L

From ChEMBL document CHEMBL3885881, “DrugMatrix”
